Results taken from the supplement of paper PMC10307832.

Key:
Assay in all cases: relative viability (nuclei count vs DMSO), 5 days (fraction); higher = more cells survive
CAP-232 + Trametinib = compound: C[C@H]([C@@H](C(=O)N)NC(=O)[C@@H]1CSSC[C@@H](C(=O)N[C@H](C(=O)N[C@@H](C(=O)N[C@H](C(=O)N1)CCCCN)CC2=CNC3=CC=CC=C32)CC4=CC=C(C=C4)O)NC(=O)[C@@H](CC5=CC=CC=C5)N)O [CAP-232] + CC(=O)Nc1cccc(-n2c(=O)n(C3CC3)c(=O)c3c(Nc4ccc(I)cc4F)n(C)c(=O)c(C)c32)c1 [Trametinib] (partner 0.02 µM)
Outline: (§1)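 Relative viability was taken as the ratio of nuclei in treated wells to nuclei in vehicle wells. Lung cancer cell lines in 1536-well plates received compounds by pin tool one day after seeding, either one drug alone or a fixed anchor-drug dose plus five library-drug doses (not always all listed) in √10 steps. Nuclei were counted on 4× images after 5 days of treatment, and values are medians of duplicate plates.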

CAP-232 + Olaparib = compound: C[C@H]([C@@H](C(=O)N)NC(=O)[C@@H]1CSSC[C@@H](C(=O)N[C@H](C(=O)N[C@@H](C(=O)N[C@H](C(=O)N1)CCCCN)CC2=CNC3=CC=CC=C32)CC4=CC=C(C=C4)O)NC(=O)[C@@H](CC5=CC=CC=C5)N)O [CAP-232] + O=C(c1cc(Cc2n[nH]c(=O)c3ccccc23)ccc1F)N1CCN(C(=O)C2CC2)CC1 [Olaparib] (partner 8 µM)
Outline: as §1

CAP-232 + Crizotinib = compound: C[C@H]([C@@H](C(=O)N)NC(=O)[C@@H]1CSSC[C@@H](C(=O)N[C@H](C(=O)N[C@@H](C(=O)N[C@H](C(=O)N1)CCCCN)CC2=CNC3=CC=CC=C32)CC4=CC=C(C=C4)O)NC(=O)[C@@H](CC5=CC=CC=C5)N)O [CAP-232] + C[C@@H](Oc1cc(-c2cnn(C3CCNCC3)c2)cnc1N)c1c(Cl)ccc(F)c1Cl [Crizotinib] (partner 1 µM)
Outline: as §1

CAP-232 + Linsitinib = compound: C[C@H]([C@@H](C(=O)N)NC(=O)[C@@H]1CSSC[C@@H](C(=O)N[C@H](C(=O)N[C@@H](C(=O)N[C@H](C(=O)N1)CCCCN)CC2=CNC3=CC=CC=C32)CC4=CC=C(C=C4)O)NC(=O)[C@@H](CC5=CC=CC=C5)N)O [CAP-232] + C[C@]1(O)C[C@@H](c2nc(-c3ccc4ccc(-c5ccccc5)nc4c3)c3c(N)nccn32)C1 [Linsitinib] (partner 1 µM)
Outline: as §1

CAP-232 + Pemetrexed = compound: C[C@H]([C@@H](C(=O)N)NC(=O)[C@@H]1CSSC[C@@H](C(=O)N[C@H](C(=O)N[C@@H](C(=O)N[C@H](C(=O)N1)CCCCN)CC2=CNC3=CC=CC=C32)CC4=CC=C(C=C4)O)NC(=O)[C@@H](CC5=CC=CC=C5)N)O [CAP-232] + Nc1nc2[nH]cc(CCc3ccc(C(=O)N[C@@H](CCC(=O)O)C(=O)O)cc3)c2c(=O)[nH]1 [Pemetrexed] (partner 0.2 µM)
Outline: as §1

Row | Cell Line | relative viability (CAP-232 + Trametinib; first compound 0.4 µM) | relative viability (CAP-232 + Trametinib; first compound 1.265 µM) | relative viability (CAP-232 + Trametinib; first compound 4 µM) | relative viability (CAP-232 + Trametinib; first compound 12.65 µM) | relative viability (CAP-232 + Olaparib; first compound 0.4 µM) | relative viability (CAP-232 + Olaparib; first compound 1.265 µM) | relative viability (CAP-232 + Olaparib; first compound 4 µM) | relative viability (CAP-232 + Olaparib; first compound 12.65 µM) | relative viability (CAP-232 + Crizotinib; first compound 0.4 µM) | relative viability (CAP-232 + Crizotinib; first compound 1.265 µM) | relative viability (CAP-232 + Crizotinib; first compound 4 µM) | relative viability (CAP-232 + Crizotinib; first compound 12.65 µM) | relative viability (CAP-232 + Linsitinib; first compound 0.4 µM) | relative viability (CAP-232 + Linsitinib; first compound 1.265 µM) | relative viability (CAP-232 + Linsitinib; first compound 4 µM) | relative viability (CAP-232 + Linsitinib; first compound 12.65 µM) | relative viability (CAP-232 + Pemetrexed; first compound 0.4 µM) | relative viability (CAP-232 + Pemetrexed; first compound 1.265 µM) | relative viability (CAP-232 + Pemetrexed; first compound 4 µM) | relative viability (CAP-232 + Pemetrexed; first compound 12.65 µM)
1 | NCI-H596 | 0.901 | 0.675 | 0.851 | 0.765 | 0.713 | 0.612 | 0.583 | 0.641 | 1.15 | 0.988 | 0.89 | 1.05 | 1.05 | 1.05 | 1.14 | 1.06 | 0.562 | 0.49 | 0.439 | 0.448
2 | NCI-H647 | 0.321 | 0.504 | 0.564 | 0.249 | 0.699 | 0.7 | 0.635 | 0.373 | 1.28 | 1.01 | 1.05 | 0.871 | 1.09 | 1.13 | 1.5 | 0.851 | 0.153 | 0.184 | 0.182 | 0.158
3 | NCI-H650 | 0.821 | 1.04 | 0.896 | 1.01 | 0.434 | 0.427 | 0.341 | 0.361 | 0.7 | 0.767 | 0.795 | 0.494 | 1.12 | 0.808 | 0.872 | 0.846 | 0.869 | 0.786 | 0.799 | 0.932
4 | NCI-H661 | 0.523 | 0.536 | 0.578 | 0.377 | 0.768 | 0.771 | 0.8 | 0.683 | 1 | 0.947 | 1.05 | 1.13 | 0.488 | 0.659 | 0.575 | 0.462 | 0.885 | 0.872 | 0.98 | 0.827
5 | NCI-H838 | 0.59 | 0.555 | 0.626 | 0.39 | 0.883 | 0.808 | 0.836 | 0.705 | 1.03 | 0.804 | 0.981 | 0.65 | 1.09 | 1.01 | 1.08 | 0.595 | 0.254 | 0.26 | 0.245 | 0.261
6 | NCI-H1355 | 0.437 | 0.434 | 0.456 | 0.342 | 0.737 | 0.747 | 0.769 | 0.703 | 1.02 | 1.01 | 1.22 | 1.27 | 0.776 | 0.901 | 1.02 | 0.754 | 1.03 | 0.946 | 1.19 | 1
7 | NCI-H1437 | 0.445 | 0.515 | 0.617 | 0.458 | 0.64 | 0.629 | 0.665 | 0.607 | 1.11 | 0.927 | 1.05 | 0.81 | 1.04 | 1.03 | 1.17 | 0.664 | 0.299 | 0.288 | 0.33 | 0.321
8 | NCI-H1651 | 0.902 | 0.803 | 0.836 | 0.784 | 0.196 | 0.184 | 0.2 | 0.214 | 0.861 | 0.856 | 0.918 | 0.904 | 1.02 | 0.937 | 1.01 | 0.655 | 0.686 | 0.514 | 0.676 | 0.709
9 | NCI-H1666 | 0.699 | 0.859 | 0.924 | 0.734 | 0.819 | 0.75 | 0.816 | 0.664 | 1.03 |  | 0.829 | 0.852 | 0.721 |  | 0.85 | 0.619 | 0.911 | 0.887 | 0.984 | 0.874
10 | NCI-H1734 | 0.506 | 0.656 | 0.645 | 0.504 | 0.596 | 0.609 | 0.605 | 0.512 | 0.674 | 0.577 | 0.758 | 0.65 | 0.848 | 0.917 | 0.951 | 0.766 | 0.44 | 0.402 | 0.402 | 0.307
11 | NCI-H1755 | 0.765 | 0.724 | 0.792 | 0.771 | 0.911 | 0.881 | 0.935 | 0.824 | 0.988 | 0.778 | 0.976 | 0.747 | 1.07 | 0.975 | 1.08 | 0.941 | 0.398 | 0.375 | 0.514 | 0.393
12 | NCI-H1792 | 0.516 | 0.443 | 0.474 | 0.415 | 0.51 | 0.642 | 0.623 | 0.235 | 1.37 | 1.02 | 0.834 | 0.722 | 0.493 | 0.56 | 0.654 | 0.285 | 1.12 | 0.78 | 0.849 | 0.465
13 | NCI-H1915 | 0.207 | 0.307 | 0.291 | 0.371 | 0.243 | 0.248 | 0.249 | 0.267 | 1.04 | 0.915 | 1.04 | 0.961 | 1.08 | 1.1 | 1.08 | 0.986 | 0.563 | 0.41 | 0.55 | 0.464
